Results: ChEMBL document CHEMBL1134112, “[3H]MFZ 2-12: a novel radioligand for the dopamine transporter” (Bioorg Med Chem Lett, 2001)

Target: Sodium-dependent dopamine transporter (Homo sapiens, UniProt Q01959)
Experiment: Ability to inhibit human dopamine uptake by the human dopamine transporter in EM4 cells stably infected with Flag HA-hDAT
Type: functional, cell-based

Sodium-dependent dopamine transporter, sequence (Q01959 whole entry): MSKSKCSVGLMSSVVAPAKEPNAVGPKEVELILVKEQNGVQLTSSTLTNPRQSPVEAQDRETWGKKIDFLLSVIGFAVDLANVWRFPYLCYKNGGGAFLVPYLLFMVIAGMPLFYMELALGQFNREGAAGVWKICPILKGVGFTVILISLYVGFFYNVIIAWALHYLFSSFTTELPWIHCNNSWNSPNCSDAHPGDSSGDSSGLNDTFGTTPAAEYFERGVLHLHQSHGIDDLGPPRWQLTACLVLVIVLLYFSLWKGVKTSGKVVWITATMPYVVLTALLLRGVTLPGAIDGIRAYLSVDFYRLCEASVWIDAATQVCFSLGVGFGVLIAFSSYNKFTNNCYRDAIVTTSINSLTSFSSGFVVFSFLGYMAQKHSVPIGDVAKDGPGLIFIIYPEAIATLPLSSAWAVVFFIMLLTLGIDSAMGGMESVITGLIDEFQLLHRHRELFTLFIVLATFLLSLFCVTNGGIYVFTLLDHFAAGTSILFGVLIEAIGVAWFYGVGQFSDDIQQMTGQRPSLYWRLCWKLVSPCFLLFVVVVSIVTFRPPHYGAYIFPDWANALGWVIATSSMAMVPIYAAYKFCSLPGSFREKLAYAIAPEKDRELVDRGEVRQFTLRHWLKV

SMILES	IC50 [nM]
COC(=O)[C@@H]1C2CCC(C[C@@H]1c1ccc(Cl)c(Cl)c1)N2 (some centres not stated)	1.4
COC(=O)[C@@H]1C2CCC(C[C@@H]1c1ccc(Cl)c(Cl)c1)N2C (some centres not stated)	1.1
